One series deals with DENV type 1. Particulars: rhesus monkeys infected with DENV type 1, therapeutic and prophylactic protocols; cited from earlier work.
Series [1] concerns YFV. Conditions: rhesus monkey, in vivo; cited from earlier work.
The next series relates to Vaccinia Virus (VV). Format: cell-based. Particulars: read-out: concentration required to reduce the plaque number by 50%, VV.
Series [2] concerns MDBK (Bovine normal kidney) cells.
For series [3], the system named is BHK cells (Hamster normal kidney fibroblast).
For another series, the system named is Reovirus-1 (Reo-1). Format: cell-based. Particulars: read-out: concentration required to achieve 50% protection from Reovirus-1 induced cytopathogenicity. Background: Cytopathic effects are the visible damage that an infection or toxin causes in cultured cells.
In series [4] the test system is Respiratory Syncytial Virus (RSV). Format: cell-based. Particulars: read-out: concentration required to reduce the plaque number by 50%, RSV.
In series [5] the test system is Dengue subgenomic replicons. The series is described as follows: Anti-DENV activity in BHK cells containing Dengue subgenomic replicons. Format: cell-based, Dengue virus. For orientation: Replicon systems follow genome replication, usually without infectious particles.
Series [6] relates to TBEV strain Oshima 5-10. Format: cell-based, Tick-borne encephalitis virus.
The next series concerns Herpesvirus 1 (HSV-1). Format: cell-based. Conditions: read-out: concentration required to reduce the plaque number by 50%, HSV-1.
For series [7], the system named is JEV strain SA-14. Format: cell-based, Japanese encephalitis virus.
Series [8] has as its system Yellow fever virus (YFV) 17D vaccine strain. Format: cell-based. Particulars: read-out: EC50, anti-YFV, CPE reduction assay.
The conditions of series [9]: previous studies, Guzzo C A et al. 2002; cited from earlier work.
The test system of series [10] is Vesicular Stomatitis Virus (VSV). Format: cell-based. Conditions: read-out: concentration required to reduce the plaque number by 50%, VSV.
The subject of series [11] is Bovine viral diharrea virus (BVDV). Format: cell-based. Conditions: read-out: concentration required to achieve 50% protection from BVDV induced cytopathogenicity.
A further series relates to Poliovirus 1 (Sb-1). Format: cell-based. Conditions: read-out: concentration required to reduce the plaque number by 50%, Sb-1.
The test system of series [12] is JEV strain SA-14. Format: cell-based, Japanese encephalitis virus. Particulars: read-out: EC50, JEV, virus yield assay.
The test system of series [13] is Coxsackievirus B2 (CVB-2). Format: cell-based. Particulars: read-out: concentration required to reduce the plaque number by 50%, CVB-2.
For another series, the system named is Modoc (MODV) strain M544. Format: cell-based, Modoc virus. Particulars: read-out: EC50, anti-MODV, virus yield reduction assay.
In series [14] the test system is Dengue virus (DENV) serotype 2 New Guinea C (NGC) strain. Format: cell-based. Conditions: read-out: EC50, anti-DENV, virus yield reduction assay.
For series [15], the system named is VERO-76 (Monkey normal kidney) monolayers.
Series [16] has as its system TBEV strain Oshima 5-10. Format: cell-based, Tick-borne encephalitis virus. Conditions: read-out: EC50, TBEV, virus yield assay.
In series [17] the test system is YFV. Format: cell-based, Yellow fever virus. Conditions: read-out: EC50, anti-YFV, virus yield reduction assay.

Several values for one entry are separate records, joined by “and”; a condition that tells them apart may be missing. Identical values can stand only once. Like-named read-outs stand apart in the source and are kept apart here.

In the case of `NC(=O)c1ncn([C@@H]2O[C@H](CO)[C@@H](O)[C@H]2O)n1` [ribavirin, 1-beta-D-ribofuranosyl-1,2,4-triazole-3-carboxamide], the “effect on viremia or survival” value in the series with DENV type 1 and with YFV [1] was “no effect on viremia or survival was observed” throughout.
As for ivermectin, the EC50 in the series on Vaccinia Virus (VV) is above 6000 nM; in the series with Reovirus-1 (Reo-1), above 1500 nM; in series [4] it was above 6000 nM; in the series with TBEV strain Oshima 5-10 [6] (read-out: EC50, TBEV, viral titer reduction assay) it was 200 nM; in the series on TBEV strain Oshima 5-10 [6] (read-out: EC50, TBEV, viral titration on BHK21 cells) it was 200 nM; in the series with Herpesvirus 1 (HSV-1), above 6000 nM. Also, the EC50 was 300 nM in the series with JEV strain SA-14 [7] (read-out: EC50, JEV, viral titer reduction assay); 300 nM in the series on JEV strain SA-14 [7] (read-out: EC50, JEV, viral titration on BHK21 cells); 7.4 nM and 10.3 nM in series [8]; above 6000 nM in series [10]; around 1500 nM in series [11]; above 6000 nM in the series with Poliovirus 1 (Sb-1). In addition, the EC50 in the series on JEV strain SA-14 [12] is 100 to 1000 nM; in series [13], above 6000 nM; in the series on Modoc (MODV) strain M544, 730 nM; in [14], 710 nM; in the series on TBEV strain Oshima 5-10 [16] it was 100 to 1000 nM; in the series with YFV [17] it was 4.9 nM. Also, the “concentration required to reduce the viability of MDBK cells by 50%” value in [2] was found to be 11 µM. In addition, the “concentration required to reduce the viability of BHK monolayers by 50%” value in series [3] amounted to 1.5 µM. In series [5], the “anti-DENV activity in replicon cells” value is on record as “possess anti-DENV activity”. Also, the “dose that can be safely employed” value in series [9] is “up to 10 times the highest FDA-approved dose of 200 μg/kg”. Besides, the “concentration required to reduce the viability of VERO 76 monolayers by 50%” value in series [15] came to 6 µM.

Source of the values: patent US8741856B2, “Avermectins and milbemycins for the treatment, prevention or amelioration of flavivirus infections” (priority 2009, dated 2014).
